Test results taken from ChEMBL document CHEMBL3885861, “Open TG-GATES”.

Organism: Rattus norvegicus
Experiment: Open TG-GATES - Regimen: Single
Format: toxicity, organism-based, Sprague-Dawley
Set-up: regimen Single, gender Male, age 6 weeks
Settings: in vivo, po, 0 mg/kg, route gavage, dose level Control; for APTT / Bas / Eos / Fbg / Hb / Ht / Lym / MCH / MCHC / MCV / Mono / Neu / PT / Plat / RBC / Ret / WBC: tissue Blood; for KIDNEY_L / KIDNEY_R / KIDNEY_TOTAL: tissue Kidney; for LIVER: tissue Liver; for A/G / ALP / ALT / AST / BUN / CRE / Ca / Cl / DBIL / GLC / IP / K / LDH / Na / PL / RALB / TBIL / TC / TG / TP / gamma-GTP: tissue Plasma

Cn1cnc([N+](=O)[O-])c1Sc1ncnc2nc[nH]c12 [AZATHIOPRINE]
TERMINAL_BW (3 h): 189.8 g
APTT (3 h): 23.1 s
Bas (3 h): 0%
Eos (3 h): 1%
Fbg (3 h): 288.2 mg/dL
Hb (3 h): 13.4 g/dL
Ht (3 h): 39.3%
Lym (3 h): 78.6%
MCH (3 h): 21.9 pg
MCHC (3 h): 34%
MCV (3 h): 64.5 fL
Mono (3 h): 2.4%
Neu (3 h): 17.2%
PT (3 h): 15.7 s
Plat (3 h): 117.7 x10_4/uL
RBC (3 h): 610.8 x10_4/ul
Ret (3 h): 9.3%
WBC (3 h): 98.5 x10_2/uL
KIDNEY_L (3 h): 0.9 g
KIDNEY_R (3 h): 0.9 g
KIDNEY_TOTAL (3 h): 1.7 g
LIVER (3 h): 8.6 g
A/G (3 h): 1.1
ALP (3 h): 1465.6 IU/L
ALT (3 h): 46.8 IU/L
AST (3 h): 78.4 IU/L
BUN (3 h): 11.8 mg/dL
CRE (3 h): 0.2 mg/dL
Ca (3 h): 10.3 mg/dL
Cl (3 h): 107 meq/L
DBIL (3 h): 0 mg/dL
GLC (3 h): 175.4 mg/dL
IP (3 h): 8.2 mg/dL
K (3 h): 3.9 meq/L
LDH (3 h): 217.6 IU/L
Na (3 h): 142.6 meq/L
PL (3 h): 129.6 mg/dL
RALB (3 h): 2.9 g/dL
TBIL (3 h): 0.006 mg/dL
TC (3 h): 79 mg/dL
TG (3 h): 46 mg/dL
TP (3 h): 5.5 g/dL
gamma-GTP (3 h): 1.2 IU/L
TERMINAL_BW (6 h): 186.3 g
APTT (6 h): 21.1 s
Bas (6 h): 0%
Eos (6 h): 1%
Fbg (6 h): 307.4 mg/dL
Hb (6 h): 13.2 g/dL
Ht (6 h): 39.3%
Lym (6 h): 73.8%
MCH (6 h): 21.6 pg
MCHC (6 h): 33.7%
MCV (6 h): 64.1 fL
Mono (6 h): 2.4%
Neu (6 h): 22%
PT (6 h): 15.7 s
Plat (6 h): 124.9 x10_4/uL
RBC (6 h): 612.4 x10_4/ul
Ret (6 h): 9.5%
WBC (6 h): 66 x10_2/uL
KIDNEY_L (6 h): 0.9 g
KIDNEY_R (6 h): 0.9 g
KIDNEY_TOTAL (6 h): 1.7 g
LIVER (6 h): 8.4 g
A/G (6 h): 1.3
ALP (6 h): 1451.6 IU/L
ALT (6 h): 42.8 IU/L
AST (6 h): 70.8 IU/L
BUN (6 h): 11.6 mg/dL
CRE (6 h): 0.1 mg/dL
Ca (6 h): 10.4 mg/dL
Cl (6 h): 106.4 meq/L
DBIL (6 h): 0.002 mg/dL
GLC (6 h): 183.8 mg/dL
IP (6 h): 8.8 mg/dL
K (6 h): 4.2 meq/L
LDH (6 h): 254.6 IU/L
Na (6 h): 141.6 meq/L
PL (6 h): 137.8 mg/dL
RALB (6 h): 3.1 g/dL
TBIL (6 h): 0.014 mg/dL
TC (6 h): 77.6 mg/dL
TG (6 h): 66.8 mg/dL
TP (6 h): 5.5 g/dL
gamma-GTP (6 h): 1 IU/L
TERMINAL_BW (9 h): 190.4 g
APTT (9 h): 20.8 s
Bas (9 h): 0%
Eos (9 h): 0.6%
Fbg (9 h): 301.8 mg/dL
Hb (9 h): 12.6 g/dL
Ht (9 h): 37.7%
Lym (9 h): 79.6%
MCH (9 h): 21.6 pg
MCHC (9 h): 33.2%
MCV (9 h): 65 fL
Mono (9 h): 2%
Neu (9 h): 16.2%
PT (9 h): 15.2 s
Plat (9 h): 127.2 x10_4/uL
RBC (9 h): 582 x10_4/ul
Ret (9 h): 9.9%
WBC (9 h): 93.5 x10_2/uL
KIDNEY_L (9 h): 0.9 g
KIDNEY_R (9 h): 0.9 g
KIDNEY_TOTAL (9 h): 1.9 g
LIVER (9 h): 8.2 g
A/G (9 h): 1.3
ALP (9 h): 1520.4 IU/L
ALT (9 h): 38 IU/L
AST (9 h): 72.8 IU/L
BUN (9 h): 10.6 mg/dL
CRE (9 h): 0.1 mg/dL
Ca (9 h): 10.5 mg/dL
Cl (9 h): 105.6 meq/L
DBIL (9 h): 0.004 mg/dL
GLC (9 h): 176.2 mg/dL
IP (9 h): 9.5 mg/dL
K (9 h): 4.3 meq/L
LDH (9 h): 182.4 IU/L
Na (9 h): 141.2 meq/L
PL (9 h): 125.2 mg/dL
RALB (9 h): 3 g/dL
TBIL (9 h): 0.016 mg/dL
TC (9 h): 76.4 mg/dL
TG (9 h): 46.2 mg/dL
TP (9 h): 5.3 g/dL
gamma-GTP (9 h): 1 IU/L
TERMINAL_BW (24 h): 202.7 g
APTT (24 h): 21.7 s
Bas (24 h): 0%
Eos (24 h): 0.6%
Fbg (24 h): 308.2 mg/dL
Hb (24 h): 13.5 g/dL
Ht (24 h): 39.6%
Lym (24 h): 77.4%
MCH (24 h): 22.2 pg
MCHC (24 h): 34.1%
MCV (24 h): 65.2 fL
Mono (24 h): 2%
Neu (24 h): 18.6%
PT (24 h): 16.2 s
Plat (24 h): 117.2 x10_4/uL
RBC (24 h): 607 x10_4/ul
Ret (24 h): 8.8%
WBC (24 h): 97.8 x10_2/uL
KIDNEY_L (24 h): 0.9 g
KIDNEY_R (24 h): 0.9 g
KIDNEY_TOTAL (24 h): 1.7 g
LIVER (24 h): 9.6 g
A/G (24 h): 1.2
ALP (24 h): 1642 IU/L
ALT (24 h): 46 IU/L
AST (24 h): 74.6 IU/L
BUN (24 h): 16.8 mg/dL
CRE (24 h): 0.1 mg/dL
Ca (24 h): 11 mg/dL
Cl (24 h): 106.8 meq/L
DBIL (24 h): 0 mg/dL
GLC (24 h): 185.6 mg/dL
IP (24 h): 7 mg/dL
K (24 h): 3.9 meq/L
LDH (24 h): 223.2 IU/L
Na (24 h): 143.2 meq/L
PL (24 h): 156.8 mg/dL
RALB (24 h): 3.1 g/dL
TBIL (24 h): 0.006 mg/dL
TC (24 h): 86.8 mg/dL
TG (24 h): 102.8 mg/dL
TP (24 h): 5.6 g/dL
gamma-GTP (24 h): 1 IU/L
